Measurements published in the CheMixHub drug solubility set.

Test: xn = mol fraction of the nth substance listed, in the solute-free solvent

CC(S)C(=O)NCC(=O)O (stereo not drawn) + CCCCO + Cc1ccccc1
solubility (g/100 g solution)
Details	273.15 K	278.15 K	283.15 K	288.15 K	293.15 K	298.15 K	303.15 K	308.15 K	313.15 K	318.15 K
x2 = 0.2371	0.947	1.12	1.28	1.47	1.67	1.87	2.08	2.33	2.6	2.92
x2 = 0.4531	2.23	2.53	2.88	3.29	3.76	4.25	4.73	5.25	5.84	6.48
x2 = 0.6509	2.84	3.41	4.01	4.7	5.45	6.25	7.12	7.99	8.88	10
x2 = 0.8325	3.57	4.44	5.37	6.33	7.31	8.43	9.63	11	12.3	13.9

FC(F)(F)c1cccnc1Cl + CN(C)C=O + CCO
solubility (g/100 g solution)
Details	263.15 K	268.15 K	273.15 K	278.15 K	283.15 K	288.15 K	293.15 K	298.15 K	303.15 K
x2 = 0.2013	36.2	43.5	51.6	59	67	74.8	82.5	89.4	95.4
x2 = 0.3352	41.2	48.1	56.3	62.5	69.5	77	83.4	90.3	96
x2 = 0.5291	47.4	53.8	60.5	66.9	73.2	79.9	85.7	91.4	96.8
x2 = 0.7496	51.2	57.2	63.7	69.6	75.4	81.3	86.7	92.5	97.7

FC(F)(F)c1cccnc1Cl + CN(C)C=O + CCCCO
solubility (g/100 g solution)
Details	263.15 K	268.15 K	273.15 K	278.15 K	283.15 K	288.15 K	293.15 K	298.15 K	303.15 K
x2 = 0.2885	31.3	36.7	42.1	48.9	55.3	61.7	68.1	74.6	81.4
x2 = 0.4479	37.6	43.2	48.7	55.3	61.5	67.7	73.7	79.9	85.9
x2 = 0.6438	43.1	48.9	54.2	61.1	67.5	73.7	79.7	85.6	90.9
x2 = 0.8281	50.8	56.5	61.9	68.2	74	79.6	85	90.4	95.1

Nc1nc2ccc(OC(F)(F)F)cc2s1 + CCO + O
solubility (g/100 g solution)
Details	278.15 K	283.15 K	288.15 K	293.15 K	298.15 K	303.15 K	308.15 K	313.15 K	318.15 K	323.15 K
x2 = 0.2068	16	19.7	23.8	26.5	32.5	38.3	43.3	47.4	51.7	55.5
x2 = 0.2812	31.4	35.5	39.9	43.9	48.1	52.1	56.1	59.6	62.5	64.8
x2 = 0.3697	56.3	58.7	60.7	63.2	65.5	67.8	69.7	70.9	72.7	74
x2 = 0.4772	50.7	53.3	55.4	58.1	60.6	63.6	66	68	69.9	71.4
x2 = 0.6099	53.2	55.1	57.4	59.7	61.7	63.6	65.3	67	68.6	69.9
x2 = 0.7786	52.6	54.4	57.2	59	61.3	63.1	64.9	66.7	68.2	70

N#CCNC(=O)c1cnccc1C(F)(F)F + CCOC(C)=O + CCO
solubility (g/100 g solution)
Details	283.15 K	288.15 K	293.15 K	298.15 K	303.15 K	308.15 K	313.15 K	318.15 K	323.15 K
x2 = 0.2	4.4	5.22	6.22	7.38	8.72	10.2	12	14	16.2
x2 = 0.4	5.66	6.57	7.58	8.78	10.1	11.6	13.2	15.2	17.2
x2 = 0.6	5.43	6.27	7.24	8.3	9.5	10.8	12.3	13.9	15.6
x2 = 0.8	4.38	5.03	5.77	6.59	7.53	8.56	9.69	10.9	12.3

Cl.NC(Cc1ccccc1)C(=O)OCc1ccccc1 (stereo not drawn) + CO + CC(C)=O
solubility (g/100 g solution)
Details	x2 = 0.1	x2 = 0.2	x2 = 0.3	x2 = 0.4	x2 = 0.5	x2 = 0.6	x2 = 0.7	x2 = 0.8	x2 = 0.9
283.15 K	0.104	0.31	1.34	2.29	3.85	5.52	7.5	9.27	11.1
293.15 K	0.238	0.665	1.52	2.75	4.55	6.53	8.94	11	13.1
303.15 K	0.306	0.778	1.83	3.37	5.58	7.97	10.7	13.6	15.5
313.15 K	0.482	0.999	2.35	4.15	6.96	9.8	13.2	15.8	18.4
323.15 K	0.588	1.3	2.96	5.13	8.44	12.1	15.8	19.4	21.6
